Source: patent US12043845B2, “Methods of cell culture” (Polpharma Biologics S.A., priority 2017, dated 2024)

Assays:
[1] = tested on: CHO cells producing omalizumab; experiment: Specific production rate (Qp) for omalizumab; assay type: cell-based, Chinese hamster; conditions: citrulline added, vs control without citrulline (FIG. 8)
Experimental: CHO cell line 230×846 expressing the anti-IgE antibody omalizumab was selected for this experiment. The cell line was thawed and cultured in 25 mL shake flasks (SFs) containing PowerCHO-2 CD medium (Lonza) with 4 mM L-glutamine and 1% (v/v) Fe-citrate solution. Subsequently, the cells were expanded in SFs with increasing volume as seed train. 12 SFs were inoculated at a concentration of 0.5·10^6 vc mL^−1. The SFs were inoculated in 25 mL PowerCHO-2-CD medium containing L-glutamine and Fe-citrate and placed on a shaking plateau in an incubator at 37° C. On the day of inoculation, 2% (v/v) of BC feed and 0.2% (v/v) of cys/tyr feed was given. The glucose concentration was measured every day before feeding. From day 3 on, feeding was done based on glucose consumption of the previous day, aiming for a glucose concentration of 3.5 g/L. Different concentrations of citrulline were added to the medium and BC feed.
(§1) The Octet system performs label-free quantitation of antibodies, proteins, peptides, DNA and other biomolecules and provides kinetic characterization of biomolecular binding interactions. […] The binding rates of the test samples are measured and interpolated from a standard curve generated from a similar or equivalent protein to determine the concentration of the protein. […]

[2] = tested on: CHO cells producing natalizumab; experiment: Cation exchange chromatography of acidic and basic species of natalizumab from CHO cells cultured with citrulline; assay type: cell-based, Chinese hamster; conditions: increasing concentrations of citrulline (8, 12 g/l), 14 days
Experimental: Cell lineC4 expressing natalizumab was cultured in 15 ml AMBR microbioreactors. Dissolved oxygen tension (DOT) was controlled at 40% and the temperature maintained at 36.8° C. during the first 4 days with a temperature shift to 33° C. on day 5 for the rest of the cultivation time. The targeted viable cell concentration at inoculation was 1.0×10^6±0.1 viable cells mL^−1. The post inoculation volume of the production stage bioreactors was set to 15 mL in the microbioreactors of the AMBR system. The pH set point was 7.0±0.1. The basal medium was PolCHO-P CD (available from GE healthcare). From day 3 on, 4.2% (v/v) of PolCHO feed A (available from GE healthcare) per day was added as a bolus. If required, a D-glucose solution was used to increase glucose concentration in the broth to 4 g L^−1. In addition, 0.42% (v/v) of PolCHO feed B (available from GE healthcare) was added every day as a bolus. […]
The separation was carried out by Cation Exchange High Performance Liquid Chromatography on the UPLC H-Class Bio System using UV detection under Empower™ Software control. […] The column temperature was 40° C. and elution was monitored at 220 nm.
(§2) For data evaluation the Waters Empower 3 software was used. The sample composition was determined by detecting peaks based on their retention time and the relative proportions of each peak were calculated from the peak areas. […]

[3] = tested on: CHO cells producing ustekinumab; experiment: Rapifluor-MS released N-glycan analysis of ustekinumab; assay type: cell-based, Chinese hamster; conditions: 5 g/l and 8 g/l citrulline, 12 or 14 days, vs control
Experimental: The shake flasks were inoculated in 25 mL Actipro medium (available from GE healthcare, Catalogue number SH31039.01) and placed on a shaking plateau in an incubator at 37° C. On the day of inoculation, 2% (v/v) of Cell boost 7A (available from GE healthcare, Catalogue number SH31026.02) and 0.2% (v/v) of Cell boost 7B (available from GE healthcare, Catalogue number SH31027.01) was given. From day 3 on, a flat feed was given of 4% (v/v) of Cell boost per day. Every day before feeding, glucose concentration was measured. If required, a D-glucose solution was used to increase glucose concentration in the broth to 4 g L^−1, before feeding. In addition, 0.4% (v/v) of Cell boost 7B was added every day as a bolus. Different concentrations of citrulline (5 g/l and 8 g/l) were added to the medium and to Cell boost 7A. At day 5 after inoculating the cells into the cell culture medium the temperature of the cell culture was reduced to 31° C.±0.2° C.
The N-glycan composition and relative distribution thereof was analyzed using the Rapifluor MS N-Glycan Kit purchased from Waters, using the manufacturer's instructions. It comprises denaturation and release of N-linked glycans by PNGase F from Protein A purified material. The released glycans are then labeled with the proprietary Rapifluor label, which contains a fluorescent moiety and a proton capturing moiety. […]

[4] = tested on: CHO cells producing ustekinumab; experiment: Cation exchange chromatography of acidic, main and basic species of ustekinumab from CHO cells cultured with citrulline; assay type: cell-based, Chinese hamster
Experimental: (§3) The stirred tank reactors (STRs) were inoculated with the cell line C20 or with the cell line C69 in pre-heated production medium (PolCHO-P, available from GE healthcare, Catalogue Number G3258.3050), at a target density of 1.0*10^6 viable cells (vc) mL^−1. From day 3 on, 4.2% (v/v) of feed A (available from GE healthcare, Catalogue Number G3259.3010) per day was added at a continuous rate over 24 hours (equivalent to 2.9 g glucose L^−1 day^−1). If required, a D-glucose solution was used to increase glucose concentration in the broth to 4 g L^−1. In addition, 0.42% (v/v) of feed B (available from GE healthcare, Catalogue Number G3260.0001) was added every day as a bolus. For cell line C20 different concentrations of citrulline (5 g/l, 8 g/l and 12 g/l) were added to the medium and to feed A. For cell line C69 10 g/l citrulline in combination with 40 mM sucrose were added to the medium and to feed A.
Additional samples of approximately 30 mL were collected on days 6, 10 and 14, centrifuged and stored in −80° C. for product quality analysis. […]
as §2

CHO cells = experiment: Citrulline concentration in culture medium during fermentation (UPLC-MS); assay type: in vitro ADME, Chinese hamster; conditions: cell line C69, stirred tank reactor, 10 g/l citrulline, days 8, 11, 13, 14
Experimental: Additional samples of approximately 30 mL were collected on days 6, 10 and 14, centrifuged and stored in −80° C. for product quality analysis. For the experiments with cell line C69 samples were also taken to determine the concentration of citrulline at different time points (days 8, 11, 13 and 14) during the bioreactor run.
To determine if citulline can be metabolised by CHO cells clarified samples were taken from the stirred tank reactor run with clone C69. Quantification of the concentration of citrulline during the culture was standardized using a 10 g/l citulline solution in WFI and the PolCHO medium was used as a negative control.
About 1 mL of culture medium was centrifuged in an Eppendorf centrifuge at 15000 rpm and at 4° C. for 10 minutes. […]
Using reference sample, the molecular mass of citrulline was confirmed by UPLC-MS to be 175.08 Da. The concentration of citrulline in the reference sample was 55.84 mM as determined by qNMR. The citrulline concentrations in culture medium samples of days 8, 11, 13 and 14 were determined by UPLC-MS analysis after appropriate dilution of the samples and by using external calibration lines prepared using the reference sample. No citrulline was detected in POLCHO medium (see FIG. 11).

[5] = tested on: CHO cells producing ustekinumab; experiment: Specific production rate (Qp) for ustekinumab; assay type: cell-based, Chinese hamster; conditions: citrulline added, vs control without citrulline (FIG. 3)
Experimental: as §3, with “For cell line C20 different concentrations of citrulline (5 g/l, 8 g/l and 12 g/l) were added to the medium and to feed A. For cell line C69 10 g/l citrulline in combination with 40 mM sucrose were added to the medium and to feed A.” left out
b) In another set of experiments cell line C20 expressing ustekinumab was selected. […] Every day before feeding, glucose concentration was measured. […]
as §1

[6] = tested on: CHO cells producing ustekinumab; experiment: Cell diameter by LUNA cell counter; assay type: cell-based, Chinese hamster; conditions: citrulline added, vs control without citrulline (FIG. 2)
Experimental: as §3
b) In another set of experiments cell line C20 expressing ustekinumab was selected. This cell line was thawed and cultured in 25 mL shake flasks (SFs) containing PolCHO-P CD (GE Healthcare) medium with methotrexate and geneticin. […] Every day before feeding, glucose concentration was measured. […]
The viable cell concentration, viability and cell size were determined using a LUNA™ cell counter with the following protocol: […]

Structure (SMILES): NC(=O)NCCC[C@H](N)C(=O)O [citrulline]
- specific production rate Qp for omalizumab [1]: same increase
- sum of acidic peaks of natalizumab [2]: decreased dose-dependently
- sum of basic peaks of natalizumab [2]: increased dose-dependently
- G0F, G1F, G1'F, G2F and sum of sialylated species [3]: no differences
- basic peaks of ustekinumab ([4]; 12 g L^-1 citrulline, day 14, control 11%): 22%
- acidic 2 peaks of ustekinumab ([4]; increasing concentrations of citrulline (5, 8, 12 g/l), day 14, vs control): decreased dose-dependently
- concentration of citrulline during the fermentation (CHO cells): does not change significantly
- specific production rate Qp for ustekinumab [5]: increases
- diameter of the cells [6]: increases
